Laboratory results from paper PMC9822133, “Design, Synthesis and Antiproliferative Evaluation of Bis-Indole Derivatives with a Phenyl Linker: Focus on Autophagy” (Molecules, 2022).

Columns and labels:
A549 cells = assay: BrdU cell proliferation assay; assay type: cell-based; settings: Homo sapiens; A549, 72 h of incubation, 5-30 μM; read-out: IC50, BrdU incorporation
Protocol: Measurement of the BrdU, a thymidine analogue, is a sensitive method used for the detection of DNA synthesis during the S phase of the cell cycle.
A549 tumor cells were plated at a density of 5 × 10^3 cells/well in a volume of 80 µL (96-well plates). After 24 h of incubation in the respective medium, we added the indole phytoalexin 49 in concentrations of 5–30 µM. After 48 h of incubation with the test substance, we added BrdU labeling solution and incubated for another 24 h. Subsequently, the cells were fixed for 30 min with a fixing solution, aspirated and incubated with peroxidase-conjugated anti-BrdU antibody (100 µL, 1:100). After washing with washing buffer 3 times, TMB substrate solution (tetramethylbenzidine, Roche, Basel, Switzerland) was added in a volume of 100 uL to each well. During the reaction, 25 µL of 1M H2SO4 was added as a stop solution, and the amount of BrdU incorporated was detected with an automated Cytation™ 3 Cell Imaging Multi-Mode Reader (Biotek, Winooski, VT, USA) at a wavelength of 450 nm. Three independent analyses were performed.

Phospho-ULK Ser555 = assay: Western blot, phospho-ULK1 Ser555; assay type: cell-based, human; settings: A549, all time periods, mostly after 24 and 48 h
Excerpt: ULK1/AMPK. ULK1 is a serine/threonine protein kinase. The ULK1 complex controls the formation of the phagophore, the initial autophagosomal precursor membrane structure. Upon induction of autophagy, the ULK1 complex translocates to autophagy initiation sites and regulates the recruitment of a second kinase complex, VPS34. ULK1 can be inhibited by phosphorylation by mammalian target of rapamycin complex 1 (mTORC1) or activated after AMP-activated protein kinase (AMPK) phosphorylation. Under conditions of nutrient deficiency, AMPK is activated, which directly activates ULK1. The kinase is phosphorylated, i.e., activated by an increased AMP/ATP ratio due to cellular and environmental stress. AMPK also inactivates mTORC1 and thus blocks its inhibitory action on autophagy activation.
A549 cells were seeded on Petri dishes (55 cm^2) at a density of 1 × 10^6 and allowed to culture in the medium. After 24 h, the test substance was added, and the cells were incubated for 24, 48 and 72 h. […] After lysis, the cells were sonicated, and the protein concentration in the samples was quantified using the Pierce® BCA Protein Assay Kit (Thermo Scientific, Rockford, IL, USA) and measured by an automated Cytation™ 3 Cell Imaging Multi-Mode Reader (Biotek) at a wavelength of 570 nm. […]

With `CC(C)(C)OC(=O)n1cc(CNC(=O)Nc2ccc(NC(=O)NCc3cn(C(=O)OC(C)(C)C)c4ccccc34)cc2)c2ccccc21` [Compound 49, N,N′-(1,4-phenylene)bis{N′-[1-(tert-butoxycarbonyl)indol-3-yl]methyl (urea)}] the IC50 (A549 cells) was 16.1 µM and the “phosphorylated form of ULK1 at Ser555” value (Phospho-ULK Ser555) was “significant upregulation”.
